Columns and labels:
[1] = target: T1, RORα (Homo sapiens, UniProt P35398); assay: RORα luciferase reporter assay; format: cell-based; settings: up to 10,000 nM, n = 3
T1 sequence (P35398 272-523 limits assumed): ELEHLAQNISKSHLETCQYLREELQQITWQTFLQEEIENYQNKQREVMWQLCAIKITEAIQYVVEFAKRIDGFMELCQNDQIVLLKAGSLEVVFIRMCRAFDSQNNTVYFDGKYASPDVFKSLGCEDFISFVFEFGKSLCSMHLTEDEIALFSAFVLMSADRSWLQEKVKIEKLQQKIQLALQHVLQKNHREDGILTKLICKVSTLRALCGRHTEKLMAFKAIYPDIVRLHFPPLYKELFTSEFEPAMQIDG
Procedure: We next assessed the selectivity of SHR168442 against another ROR family member, RORα, using nuclear reporter assay. […] ATRA (all trans-retinoic acid) was used as a positive control in the assay.
(§1) Cell-based luciferase reporter assays for RORα and RORγ (Indigo Biosciences) were performed according to the manufacturer’s protocol.

[2] = target: T2, RORγ (Homo sapiens, UniProt P51449); assay: RORγ luciferase reporter assay; format: cell-based; settings: nuclear reporter assay, n = 3; read-out: inhibition of the RORγ transcriptional activity, average IC50
T2 sequence (P51449 260-518 limits assumed): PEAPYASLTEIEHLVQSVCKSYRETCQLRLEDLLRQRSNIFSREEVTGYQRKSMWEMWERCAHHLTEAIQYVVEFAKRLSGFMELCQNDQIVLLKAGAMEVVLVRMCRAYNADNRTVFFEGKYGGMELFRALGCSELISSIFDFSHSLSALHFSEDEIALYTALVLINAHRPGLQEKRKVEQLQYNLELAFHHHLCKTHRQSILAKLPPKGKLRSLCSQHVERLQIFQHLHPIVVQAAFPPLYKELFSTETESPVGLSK
Procedure: Ursolic acid was used as a positive control.
as §1

[3] = tested on: targets in the SAFETYscan47 panel; assay: SAFETYscan47 panel (DiscoverX), whole panel; settings: 3 µM, duplicates, all targets
Procedure: To further profile any off-target activity, we counter-screened SHR168442 in SAFETYscan47 panel, compiled by DiscoverX based on the recommendation by major pharmaceutical companies. SHR168442 was screened at 3 µM in duplicates.

[4] = target: T3, RORγ LBD (Homo sapiens, UniProt P51449); assay: LanthaScreen TR-FRET human RORγ coactivator assay; format: biochemical; settings: antagonist mode, read-out: Binding of RORγ LBD, IC50
T3 construct: The assay was performed with GST-tag RORγ LBD (25 ng/reaction, Creative Biomart); purchased Creative Biomart
T3 sequence (P51449 269-508 limits assumed): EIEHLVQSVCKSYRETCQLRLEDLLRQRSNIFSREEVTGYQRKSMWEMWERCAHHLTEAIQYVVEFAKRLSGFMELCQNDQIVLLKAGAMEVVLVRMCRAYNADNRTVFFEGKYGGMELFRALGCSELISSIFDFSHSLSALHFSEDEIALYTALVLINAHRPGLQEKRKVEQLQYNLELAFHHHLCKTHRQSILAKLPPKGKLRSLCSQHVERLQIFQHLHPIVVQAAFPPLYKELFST
Description: In LanthaScreen TR-FRET RORγ coactivator assay, the RORγ LBD was constitutively active and the coactivator peptide (fluorescein-D22) was recruited in the absence of ligand, or compound (Fig. 2a). The binding of an antagonist to RORγ LBD causes a conformational change of the receptor, leading to a decrease in the affinity of the receptor for the coactivator peptide. The separation of the fluorescently labeled coactivator peptide from RORγ LBD from the receptor with the terbium-labeled antibody causes a decrease in the TR-FRET signal compared to those without compound. The assay was validated by detecting the ligand-independent recruitment of coactivator peptide in the presence or absence of RORγ LBD (2.5- to 3-fold assay window). Effects of the key compounds of the novel chemotype in Fig. 1, were tested in LanthaScreen TR-FRET RORγ coactivator assay.
The assay was performed with GST-tag RORγ LBD (25 ng/reaction, Creative Biomart), 0.6 μM Fluorescein-D22 coactivator peptide and 8 nM Tb anti-GST antibody (Invitrogen) at room temperature for 60 minutes. The fluorescent signals were measured with 520 nm emission and 495 nm excitation on Tecan Infinite. The data were calculated using DMSO control as 0% inhibition and non-protein control as 100% inhibition. IC50 values were calculated using non-linear regression analysis of GraphPad Prism in all assays.

[5] = in vivo; settings: female, C57BL/6, mouse
Procedure: The dermal PK studies of Compound 1 in Vaseline were performed in dorsal skin of female C57BL/6 and male BALB/c mice via topical route. The skin (1.5 cm × 2 cm) was shaved one day prior to the dosing. At tissue collecting time point, the skin surface was decontaminated (twice with hand soap, twice with water, alternatively, and dried with tissue swabs). Stratum corneum is removed with tape strips for five times. The tissues were homogenized for PK analyses of Compound 1 by LC/MS.

[6] = Liver microsomal stability, mouse; format: in vitro ADME; settings: liver microsomes, pH 7.4, read-out: Liver microsomal stability, t1/2, Mouse
Procedure: The compound was mixed with 0.5 mg/ml human liver microsome (Thermal Fisher) at a final concentration of 1 µM in 100 mM potassium phosphate buffer, pH 7.4. The reactions were initiated by the addition of 1 mM NADPH. Samples in duplicate were incubated at 37 °C with mixing. 100 µL aliquots were transferred after 0, 5, 10, 30, 45, 60 minutes to a new tube with 300 µL acetonitrile, incubated on ice for 30 minutes, centrifuged at 1800×g at 4 °C for 10 minutes. The supernatants were transferred to glass vials subjected to LC/MS analysis. Peak areas were measured to calculate half-life according to the formula t1/2 = − 0.693/slope of linear regression analysis of ln [concentration] versus incubation time. Similar methods were applied to access mouse and rat liver microsomal stability of the compounds.

[7] = Dermal PK, miniature pig; format: in vivo, Bama miniature pig; settings: for Exposure in plasma: topical
Procedure: Similar procedures were carried out for dermal PK of female SD rats and female Bama miniature pigs. Briefly, each area of topical application was 4 cm × 9 cm for SD rats and 6 cm × 6 cm for miniature pigs. After decontamination, the biopsy sections of SD rats were tape stripped for five times and those of miniature pig for twenty-five times, respectively. Blood and dorsal skin tissues of the animals were collected and analyzed for the compounds via LC/MS. The experimental protocol used in this study was approved by the Institutional Animal Care and Use Committees (IACUC). The experiments were conducted in accordance with the Guiding Principles for the Care and Use of Laboratory Animals and complied with the ARRIVE guidelines.

**Q.** What does the source list for CCS(=O)(=O)c1ccc([C@H](CCO)c2nc3c(Cl)c(N4CCC(F)(F)CC4)c(Cl)cc3[nH]2)cc1 [SHR168442, (S)-3-(4,6-dichloro-5-(4,4-difluoropiperidin-1-yl)-1H-benzo[d]imidazol-2-yl)-3-(4-(ethylsulfonyl)phenyl)propan-1-ol]?
**A.** effect on RORα reporter activity [1]: little effect; IC50 [2]: 15 ± 9 nM; inhibition of the targets in the SAFETYscan47 panel [3]: below 50%; IC50 [4]: 35 ± 9 nM; Exposure in plasma ([5]; 3 h): 7.0 ng/mL; Exposure in skin ([5]; 6 h): 18,500 ng/g; concentration at 3 h ([5]; Exposure in plasma): 8.8 ng/mL; concentration at 6 h ([5]; Exposure in skin): 9710 ng/g; half-life at 1 µM [6]: 6.2 min; Exposure in plasma ([7]; 2% in Vaseline, 3 h): blq (below limit of quantitation (< 6 ng/mL)); Exposure in plasma ([7]; 2% in Vaseline, 6 h): blq (below limit of quantitation (< 6 ng/mL)); Exposure in plasma ([7]; 2% in Vaseline, 24 h): blq (below limit of quantitation (< 6 ng/mL)); Exposure in plasma ([7]; 8% in Vaseline, 3 h): blq (below limit of quantitation (< 6 ng/mL)); Exposure in plasma ([7]; 8% in Vaseline, 6 h): blq (below limit of quantitation (< 6 ng/mL)); Exposure in plasma ([7]; 8% in Vaseline, 24 h): blq (below limit of quantitation (< 6 ng/mL)); systemic exposures in miniature pigs ([7]; female, Bama, pig, in vivo): < 6 ng/mL

From PMC8080595, “Discovery of a novel RORγ antagonist with skin-restricted exposure for topical treatment of mild to moderate psoriasis” (Scientific Reports, 2021)
